# Results taken from ChEMBL document CHEMBL3632622, “Synthesis and biological evaluation of novel N-phenyl ureidobenzenesulfonate derivatives as potential anticancer agents. Part 2. Modulation of the ring B” (Eur J Med Chem, 2015).
# Calls of active or inactive are those of the source. The calls are words filed in the database; no cut-off is given here.
# Assays:
# [1] = Antiproliferative activity against human HT1080 cells assessed as growth inhibition incubated for 48 hrs by sulforhodamine B assay; format: functional, cell-based, HT-1080; details: Homo sapiens, HT-1080, 48 h; read-out: IC50
# M21 [2] = assay: Cell cycle arrest in human M21 cells assessed as accumulation at subG1 phase at 11 uM after 24 hrs by DAPI staining-based flow cytometry (reference value: 1.5%); format: functional
# M21 [3] = assay: Antiproliferative activity against human M21 cells assessed as growth inhibition incubated for 48 hrs by sulforhodamine B assay; format: functional, cell-based; details: M21, 48 h
# HT-29 = assay: Antiproliferative activity against human HT-29 cells assessed as growth inhibition incubated for 48 hrs by sulforhodamine B assay; format: functional, cell-based; details: HT-29, 48 h
# M21 [4] = assay: Cell cycle arrest in human M21 cells assessed as accumulation at S phase at 11 uM after 24 hrs by DAPI staining-based flow cytometry (reference value: 17.4%); format: functional
# MCF7 = assay: Antiproliferative activity against human MCF7 cells assessed as growth inhibition incubated for 48 hrs by sulforhodamine B assay; format: functional, cell-based; details: MCF7, 48 h
# M21 [5] = assay: Cell cycle arrest in human M21 cells assessed as accumulation at G0/G1 phase at 11 uM after 24 hrs by DAPI staining-based flow cytometry (reference value: 65.1%); format: functional
# M21 [6] = assay: Cell cycle arrest in human M21 cells assessed as accumulation at G2/M phase at 11 uM after 24 hrs by DAPI staining-based flow cytometry (reference value: 16%); format: functional
# M21 [7] = assay: Cell cycle arrest in human M21 cells assessed as accumulation at subG1 phase at 48 uM after 24 hrs by DAPI staining-based flow cytometry (reference value: 1.5%); format: functional
# M21 [8] = assay: Cell cycle arrest in human M21 cells assessed as accumulation at G0/G1 phase at 48 uM after 24 hrs by DAPI staining-based flow cytometry (reference value: 65.1%); format: functional
# M21 [9] = assay: Cell cycle arrest in human M21 cells assessed as accumulation at S phase at 48 uM after 24 hrs by DAPI staining-based flow cytometry (reference value: 17.4%); format: functional
# M21 [10] = assay: Cell cycle arrest in human M21 cells assessed as accumulation at G2/M phase at 48 uM after 24 hrs by DAPI staining-based flow cytometry (reference value: 16%); format: functional
# M21 [11] = assay: Cell cycle arrest in human M21 cells assessed as accumulation at subG1 phase at 2.2 uM after 24 hrs by DAPI staining-based flow cytometry (reference value: 1.5%); format: functional
# M21 [12] = assay: Cell cycle arrest in human M21 cells assessed as accumulation at S phase at 2.2 uM after 24 hrs by DAPI staining-based flow cytometry (reference value: 17.4%); format: functional
# M21 [13] = assay: Cell cycle arrest in human M21 cells assessed as accumulation at G2/M phase at 2.2 uM after 24 hrs by DAPI staining-based flow cytometry (reference value: 16%); format: functional
# M21 [14] = assay: Cell cycle arrest in human M21 cells assessed as accumulation at G0/G1 phase at 2.2 uM after 24 hrs by DAPI staining-based flow cytometry (reference value: 65.1%); format: functional
# M21 [15] = assay: Cell cycle arrest in human M21 cells assessed as accumulation at S phase at 22 uM after 24 hrs by DAPI staining-based flow cytometry (reference value: 17.4%); format: functional
# M21 [16] = assay: Cell cycle arrest in human M21 cells assessed as accumulation at subG1 phase at 22 uM after 24 hrs by DAPI staining-based flow cytometry (reference value: 1.5%); format: functional
# M21 [17] = assay: Cell cycle arrest in human M21 cells assessed as accumulation at G2/M phase at 22 uM after 24 hrs by DAPI staining-based flow cytometry (reference value: 16%); format: functional
# M21 [18] = assay: Cell cycle arrest in human M21 cells assessed as accumulation at G0/G1 phase at 22 uM after 24 hrs by DAPI staining-based flow cytometry (reference value: 65.1%); format: functional
# M21 [19] = assay: Cell cycle arrest in human M21 cells assessed as accumulation at G2/M phase at 5.1 uM after 24 hrs by DAPI staining-based flow cytometry (reference value: 16%); format: functional
# M21 [20] = assay: Cell cycle arrest in human M21 cells assessed as accumulation at S phase at 5.1 uM after 24 hrs by DAPI staining-based flow cytometry (reference value: 17.4%); format: functional
# M21 [21] = assay: Cell cycle arrest in human M21 cells assessed as accumulation at G0/G1 phase at 5.1 uM after 24 hrs by DAPI staining-based flow cytometry (reference value: 65.1%); format: functional
# M21 [22] = assay: Cell cycle arrest in human M21 cells assessed as accumulation at subG1 phase at 5.1 uM after 24 hrs by DAPI staining-based flow cytometry (reference value: 1.5%); format: functional
# M21 [23] = assay: Cell cycle arrest in human M21 cells assessed as accumulation at S phase at 1.5 uM after 24 hrs by DAPI staining-based flow cytometry (reference value: 17.4%); format: functional
# M21 [24] = assay: Cell cycle arrest in human M21 cells assessed as accumulation at subG1 phase at 1.5 uM after 24 hrs by DAPI staining-based flow cytometry (reference value: 1.5%); format: functional
# M21 [25] = assay: Cell cycle arrest in human M21 cells assessed as accumulation at G2/M phase at 1.5 uM after 24 hrs by DAPI staining-based flow cytometry (reference value: 16%); format: functional
# M21 [26] = assay: Cell cycle arrest in human M21 cells assessed as accumulation at G0/G1 phase at 1.5 uM after 24 hrs by DAPI staining-based flow cytometry (reference value: 65.1%); format: functional
# M21 [27] = assay: Induction DNA DSBs in human M21 cells assessed as increase in gamma H2AX foci at 0.75 uM incubated for 24 hrs by DAPI staining based immunocytochemistry; format: cell-based
# M21 [28] = assay: Cell cycle arrest in human M21 cells assessed as accumulation at S phase at 42 uM after 24 hrs by DAPI staining-based flow cytometry (reference value: 17.4%); format: functional
# M21 [29] = assay: Cell cycle arrest in human M21 cells assessed as accumulation at G0/G1 phase at 42 uM after 24 hrs by DAPI staining-based flow cytometry (reference value: 65.1%); format: functional
# M21 [30] = assay: Cell cycle arrest in human M21 cells assessed as accumulation at G2/M phase at 42 uM after 24 hrs by DAPI staining-based flow cytometry (reference value: 16%); format: functional
# M21 [31] = assay: Cell cycle arrest in human M21 cells assessed as accumulation at subG1 phase at 42 uM after 24 hrs by DAPI staining-based flow cytometry (reference value: 1.5%); format: functional
# M21 [32] = assay: Cell cycle arrest in human M21 cells assessed as accumulation at S phase at 16 uM after 24 hrs by DAPI staining-based flow cytometry (reference value: 17.4%); format: functional
# M21 [33] = assay: Cell cycle arrest in human M21 cells assessed as accumulation at subG1 phase at 16 uM after 24 hrs by DAPI staining-based flow cytometry (reference value: 1.5%); format: functional
# M21 [34] = assay: Cell cycle arrest in human M21 cells assessed as accumulation at G0/G1 phase at 16 uM after 24 hrs by DAPI staining-based flow cytometry (reference value: 65.1%); format: functional
# M21 [35] = assay: Cell cycle arrest in human M21 cells assessed as accumulation at G2/M phase at 16 uM after 24 hrs by DAPI staining-based flow cytometry (reference value: 16%); format: functional
# M21 [36] = assay: Cell cycle arrest in human M21 cells assessed as accumulation at subG1 phase at 7.5 uM after 24 hrs by DAPI staining-based flow cytometry (reference value: 1.5%); format: functional
# M21 [37] = assay: Cell cycle arrest in human M21 cells assessed as accumulation at S phase at 7.5 uM after 24 hrs by DAPI staining-based flow cytometry (reference value: 17.4%); format: functional
# M21 [38] = assay: Cell cycle arrest in human M21 cells assessed as accumulation at G0/G1 phase at 7.5 uM after 24 hrs by DAPI staining-based flow cytometry (reference value: 65.1%); format: functional
# M21 [39] = assay: Cell cycle arrest in human M21 cells assessed as accumulation at G2/M phase at 7.5 uM after 24 hrs by DAPI staining-based flow cytometry (reference value: 16%); format: functional
# M21 [40] = assay: Cell cycle arrest in human M21 cells assessed as accumulation at S phase at 25 uM after 24 hrs by DAPI staining-based flow cytometry (reference value: 17.4%); format: functional
# M21 [41] = assay: Cell cycle arrest in human M21 cells assessed as accumulation at G0/G1 phase at 25 uM after 24 hrs by DAPI staining-based flow cytometry (reference value: 65.1%); format: functional
# M21 [42] = assay: Cell cycle arrest in human M21 cells assessed as accumulation at G2/M phase at 25 uM after 24 hrs by DAPI staining-based flow cytometry (reference value: 16%); format: functional
# M21 [43] = assay: Cell cycle arrest in human M21 cells assessed as accumulation at subG1 phase at 25 uM after 24 hrs by DAPI staining-based flow cytometry (reference value: 1.5%); format: functional
# M21 [44] = assay: Cell cycle arrest in human M21 cells assessed as accumulation at S phase at 6.5 uM after 24 hrs by DAPI staining-based flow cytometry (reference value: 17.4%); format: functional
# M21 [45] = assay: Cell cycle arrest in human M21 cells assessed as accumulation at G0/G1 phase at 6.5 uM after 24 hrs by DAPI staining-based flow cytometry (reference value: 65.1%); format: functional
# M21 [46] = assay: Cell cycle arrest in human M21 cells assessed as accumulation at G2/M phase at 6.5 uM after 24 hrs by DAPI staining-based flow cytometry (reference value: 16%); format: functional
# M21 [47] = assay: Cell cycle arrest in human M21 cells assessed as accumulation at subG1 phase at 6.5 uM after 24 hrs by DAPI staining-based flow cytometry (reference value: 1.5%); format: functional
compound,measurement,setting,value
CCOc1cccc(OS(=O)(=O)c2ccc(NC(=O)NCCCl)cc2)c1,IC50,[1],3300 nM
same,Activity,M21 [2],8.4%
same,IC50,M21 [3],2400 nM
same,IC50,HT-29,3200 nM
same,Activity,M21 [4],13.5%
same,IC50,MCF7,3300 nM
same,Activity,M21 [5],22.2%
same,Activity,M21 [6],55.9%
O=C(NCCCl)Nc1ccc(S(=O)(=O)Oc2ccc(F)cc2F)cc1,Activity,M21 [7],5.2%
same,IC50,[1],9400 nM
same,IC50,M21 [3],9600 nM
same,Activity,M21 [8],13.4%
same,Activity,M21 [9],10%
same,IC50,HT-29,9600 nM
same,IC50,MCF7,9300 nM
same,Activity,M21 [10],71.4%
CCOc1ccccc1OS(=O)(=O)c1ccc(NC(=O)NCCCl)cc1,IC50,[1],2200 nM
same,IC50,M21 [3],1100 nM
same,IC50,HT-29,1400 nM
same,Activity,M21 [11],6.7%
same,IC50,MCF7,1700 nM
same,Activity,M21 [12],11.8%
same,Activity,M21 [13],52.7%
same,Activity,M21 [14],28.8%
CCCc1cccc(OS(=O)(=O)c2ccc(NC(=O)NCCCl)cc2)c1,IC50,[1],2600 nM
same,IC50,M21 [3],3300 nM
same,Activity,M21 [15],5.8%
same,IC50,HT-29,3400 nM
same,IC50,MCF7,3900 nM
same,Activity,M21 [16],6%
same,Activity,M21 [17],78.3%
same,Activity,M21 [18],9.9%
O=C(NCCCl)Nc1ccc(S(=O)(=O)Oc2cc(Cl)c(Cl)cc2Cl)cc1,IC50,[1],1400 nM
same,Activity,M21 [19],82.6%
same,Activity,M21 [20],8.6%
same,IC50,M21 [3],1000 nM
same,Activity,M21 [21],3.3%
same,IC50,HT-29,1200 nM
same,Activity,M21 [22],5.5%
same,IC50,MCF7,1200 nM
CC[C@@]1(O)C(=O)OCc2c1cc1n(c2=O)Cc2cc3c(CN(C)C)c(O)ccc3nc2-1 [TOPOTECAN],IC50,[1],180 nM
same,IC50,M21 [3],1400 nM
same,IC50,HT-29,230 nM
same,Activity,M21 [23],31.8%
same,IC50,MCF7,24 nM
same,Activity,M21 [24],1.4%
same,Activity,M21 [25],60.4%
same,Activity,M21 [26],6.4%
same,Activity,M21 [27],Active
O=C(NCCCl)Nc1ccc(S(=O)(=O)Oc2ccc(F)c(F)c2)cc1,IC50,[1],8100 nM
same,IC50,M21 [3],7300 nM
same,Activity,M21 [28],18.3%
same,IC50,HT-29,7000 nM
same,IC50,MCF7,8900 nM
same,Activity,M21 [29],11.6%
same,Activity,M21 [30],62.5%
same,Activity,M21 [31],7.6%
O=C(NCCCl)Nc1ccc(S(=O)(=O)Oc2c(F)cccc2F)cc1,IC50,[1],3200 nM
same,IC50,M21 [3],3200 nM
same,Activity,M21 [32],15.1%
same,IC50,HT-29,4100 nM
same,IC50,MCF7,4800 nM
same,Activity,M21 [33],8.7%
same,Activity,M21 [34],29.4%
same,Activity,M21 [35],46.8%
COc1cc(OC)cc(OS(=O)(=O)c2ccc(NC(=O)NCCCl)cc2)c1,IC50,[1],1500 nM
same,Activity,M21 [36],11.4%
same,Activity,M21 [37],5.2%
same,IC50,M21 [3],1100 nM
same,IC50,HT-29,1100 nM
same,IC50,MCF7,2000 nM
same,Activity,M21 [38],9.3%
same,Activity,M21 [39],74.1%
COc1cccc(OS(=O)(=O)c2ccc(NC(=O)NCCCl)cc2)c1,IC50,[1],3100 nM
same,Activity,M21 [40],6.3%
same,IC50,M21 [3],3600 nM
same,Activity,M21 [41],2.5%
same,IC50,HT-29,3800 nM
same,Activity,M21 [42],87.7%
same,IC50,MCF7,4200 nM
same,Activity,M21 [43],3.5%
O=C(NCCCl)Nc1ccc(S(=O)(=O)Oc2c(Cl)cc(Cl)cc2Cl)cc1,Activity,M21 [44],7.3%
same,IC50,[1],1500 nM
same,IC50,M21 [3],1300 nM
same,Activity,M21 [45],11.6%
same,IC50,HT-29,1500 nM
same,IC50,MCF7,1700 nM
same,Activity,M21 [46],72.6%
same,Activity,M21 [47],8.5%
